Measured values from PubChem BioAssay AID330 (DTP/NCI, 2004).
Inconclusive results and toxic doses are left out.

Tested on: P388 leukemia ip, CD2F1 mice, survival T/C
Test: NCI In Vivo Anticancer Drug Screen. Data for tumor model P388 Leukemia (intraperitoneal) in CD2F1 (CDF1) mice
Conditions: endpoint: median survival time, higher = longer survival
Procedure, shortened: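 Mice carrying the transplanted tumor received test compound or vehicle. Survival was recorded in each group, and the value is the treated-group measurement divided by that of the vehicle-treated control group.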

[1] = dose: 50.0 mg/kg/injection, schedule: Q01DX009 (ip), vehicle: saline with Tween-80
[2] = dose: 100.0 mg/kg/injection, schedule: Q01DX009 (ip), vehicle: saline with Tween-80
[3] = dose: 12.5 mg/kg/injection, schedule: Q01DX009 (ip), vehicle: saline
[4] = dose: 200.0 mg/kg/injection, schedule: Q01DX009 (ip), vehicle: saline with Tween-80

CN1CCCC(O)(C(=O)c2ccccc2)C1 (stereo not given)
T/C (dose: 50.0 mg/kg/injection, schedule: Q01DX009 (ip), vehicle: saline): 108 % of control | T/C (dose: 100.0 mg/kg/injection, schedule: Q01DX009 (ip), vehicle: saline): 90 % of control | T/C (dose: 100.0 mg/kg/injection, schedule: Q04DX003 (ip), vehicle: Klucel (hydroxypropylcellulose) (HPC)): 102 % of control | T/C (dose: 200.0 mg/kg/injection, schedule: Q01DX009 (ip), vehicle: saline): 90 % of control | T/C (dose: 200.0 mg/kg/injection, schedule: Q04DX003 (ip), vehicle: Klucel (hydroxypropylcellulose) (HPC)): 104 % of control

C=CC(=NC(C)(C)C)Nc1ccc(C(=O)OCC)cc1
T/C [1]: 113 % of control | T/C [2]: 106 % of control

CCCCCCN(CCCCCC)P(=O)(N1CC1)N1CC1
T/C [3]: 118 % of control | T/C (dose: 25.0 mg/kg/injection, schedule: Q04DX003 (ip), vehicle: saline with Tween-80): 113 % of control | T/C (dose: 100.0 mg/kg/injection, schedule: Q04DX003 (ip), vehicle: saline with Tween-80): 100 % of control

Cc1nn2c(=O)c3c([N+](=O)[O-])c(C)nn3c(=O)c2c1[N+](=O)[O-]
T/C (dose: 50.0 mg/kg/injection, schedule: Q01DX005 (ip), vehicle: Klucel (hydroxypropylcellulose) (HPC)): 105 % of control | T/C (dose: 100.0 mg/kg/injection, schedule: Q01DX005 (ip), vehicle: Klucel (hydroxypropylcellulose) (HPC)): 97 % of control | T/C (dose: 200.0 mg/kg/injection, schedule: Q01DX005 (ip), vehicle: Klucel (hydroxypropylcellulose) (HPC)): 100 % of control

C[C@H](CSC(=O)c1ccccc1)C(=O)N1c2ccccc2C[C@H]1C(=O)O
T/C (dose: 60.0 mg/kg/injection, schedule: Q01DX005 (ip), vehicle: saline + Tween-80 + alcohol): 102 % of control | T/C (dose: 120.0 mg/kg/injection, schedule: Q01DX005 (ip), vehicle: saline + Tween-80 + alcohol): 102 % of control | T/C (dose: 240.0 mg/kg/injection, schedule: Q01DX005 (ip), vehicle: saline + Tween-80 + alcohol): 104 % of control

COc1cc2c(cc1O)C(CSC)Cc1cc3c(cc1N(C)CC2)OCO3 (stereo not given)
T/C (dose: 12.5 mg/kg/injection, schedule: Q01DX009 (ip), vehicle: saline with Tween-80): 100 % of control | T/C (dose: 25.0 mg/kg/injection, schedule: Q01DX009 (ip), vehicle: saline with Tween-80): 100 % of control | T/C [1]: 102 % of control | T/C [2]: 88 % of control | T/C [4]: 95 % of control

Cc1c2oc3c(C)ccc(C(=O)NCCN4CCCCC4)c3nc-2c(C(=O)NCCN2CCCCC2)c(N)c1=O
T/C (dose: 12.5 mg/kg/injection, schedule: Q01DX009 (ip), vehicle: Klucel (hydroxypropylcellulose) (HPC)): 98 % of control | T/C (dose: 25.0 mg/kg/injection, schedule: Q01DX009 (ip), vehicle: Klucel (hydroxypropylcellulose) (HPC)): 117 % of control | T/C (dose: 50.0 mg/kg/injection, schedule: Q01DX009 (ip), vehicle: Klucel (hydroxypropylcellulose) (HPC)): 115 % of control | T/C (dose: 100.0 mg/kg/injection, schedule: Q01DX009 (ip), vehicle: Klucel (hydroxypropylcellulose) (HPC)): 110 % of control

O=P(Oc1cccc2ccccc12)(N1CC1)N1CC1
T/C (dose: 6.25 mg/kg/injection, schedule: Q01DX009 (ip), vehicle: saline): 90 % of control | T/C [3]: 95 % of control | T/C (dose: 25.0 mg/kg/injection, schedule: Q01DX009 (ip), vehicle: saline): 100 % of control | T/C [2]: 177 % of control | T/C [4]: 95 % of control

CC(=O)O[C@@H]1C[C@@](C)(C[C@H]2COC(=O)C2)[C@@H]2CC(=O)O[C@@H]3C[C@H]4C(C)=C[C@@H](O)C(=O)[C@]4(C)[C@@H]1[C@@]32C
T/C (dose: 1.5 mg/kg/injection, schedule: Q01DX009 (ip), vehicle: Klucel (hydroxypropylcellulose) (HPC)): 99 % of control | T/C (dose: 3.0 mg/kg/injection, schedule: Q01DX009 (ip), vehicle: Klucel (hydroxypropylcellulose) (HPC)): 92 % of control | T/C (dose: 6.0 mg/kg/injection, schedule: Q01DX009 (ip), vehicle: Klucel (hydroxypropylcellulose) (HPC)): 108 % of control | T/C (dose: 12.0 mg/kg/injection, schedule: Q01DX009 (ip), vehicle: Klucel (hydroxypropylcellulose) (HPC)): 91 % of control

CC(=O)OCc1c(C)[nH]c2ccc(N(C)C)cc2c1=O
T/C (dose: 60.0 mg/kg/injection, schedule: Q01DX005 (ip), vehicle: saline with Tween-80): 88 % of control | T/C (dose: 120.0 mg/kg/injection, schedule: Q01DX005 (ip), vehicle: saline with Tween-80): 103 % of control | T/C (dose: 240.0 mg/kg/injection, schedule: Q01DX005 (ip), vehicle: saline with Tween-80): 111 % of control

OCC(Br)(Br)Br
T/C (dose: 100.0 mg/kg/injection, schedule: Q01DX001 (ip), vehicle: saline with Tween-80): 100 % of control | T/C (dose: 200.0 mg/kg/injection, schedule: Q01DX001 (ip), vehicle: saline with Tween-80): 98 % of control | T/C (dose: 400.0 mg/kg/injection, schedule: Q01DX001 (ip), vehicle: saline with Tween-80): 100 % of control
